Data on eight compounds can be found in article PMC2559975 (Journal of medicinal chemistry, 2008).

The test system of assay [1] is CCRF-CEM human leukemia cell line. Nature of the assay: In vitro cytotoxic activity. The format is cell-based. Conditions: for Times less potent than 2 in the CCRF-CEM assay: relative to 2.
Another assay concerns CCRF-CEM/FPGS^-. It counts as cell-based, human. Conditions: relative to CCRF-CEM.
Assay [2] has as its system CCRF-CEM human leukemia cell line. Conditions: read-out: IC50, CCRF-CEM; equi-mixture of C10-diastereomers; cited from earlier work.
A further assay has as its target T1, rhGAR Tfase (Homo sapiens, UniProt P22102).
T1 sequence (P22102 808-1010 limits assumed): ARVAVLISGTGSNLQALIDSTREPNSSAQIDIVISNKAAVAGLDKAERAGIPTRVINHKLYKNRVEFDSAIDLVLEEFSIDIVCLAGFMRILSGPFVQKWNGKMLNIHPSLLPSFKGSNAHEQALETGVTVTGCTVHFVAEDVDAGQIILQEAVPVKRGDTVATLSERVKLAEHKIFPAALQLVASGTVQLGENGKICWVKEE
Nature of the assay: GAR Tfase enzyme inhibition assay. The format is biochemical.

[3] abbreviates: Homo sapiens, CCRF-CEM, read-out: IC50 [(-)T, (-)H] CCRF-CEM.

Read-outs that look alike come from different tables or passages of the source. Some results are limits rather than exact numbers.

A word on the IC50: it is the concentration at which inhibition is half-maximal. Regarding 10-hydroxy-DDACTHF [Compound 10R-7], the IC50 in assay [1] (read-out: CCRF-CEM IC50, (+) T, (-) H, Table 2, thymidine added, no hypoxanthine) is 5.7 µM; in assay [1] (read-out: CCRF-CEM IC50, (-) T, (+) H, Table 2, hypoxanthine added, no thymidine), above 10 µM. For `Nc1nc(N)c(CCCC(C(=O)C(F)(F)F)c2ccc(C(=O)N[C@@H](CCC(=O)O)C(=O)O)cc2)c(=O)[nH]1` (some centres unmarked) [Compound 2, 10-CF3CO-DDACTHF, reference compound], the half-maximal inhibitory concentration (IC50) in assay [1] (setting [3]) came out at 0.06 µM.

Turning to `CSC(CCCc1c(N)nc(N)[nH]c1=O)c1ccc(C(=O)N[C@@H](CCC(=O)O)C(=O)O)cc1` (some centres unmarked) [Compound 3, 10-methylthio-DDACTHF], the “Loss of activity against the cell line that lacks FPGS” value with CCRF-CEM/FPGS^- is recorded as “ca. 100 fold”. For the same compound, in assay [2], the 50% inhibitory concentration (IC50) is 0.1 µM. In the case of `Nc1nc(N)c(CCCC2(c3ccc(C(=O)N[C@@H](CCC(=O)O)C(=O)O)cc3)SCCCS2)c(=O)[nH]1` [Compound 9, (S)-2-(4-(2-(3-(2,4-Diamino-6-oxo-1,6-dihydropyrimidin-5-yl)propyl)-1,3-dithian-2-yl)benzamido)pentanedioic Acid], the “Activity in the CCRF-CEM cell-based assay (in words)” value in assay [1] was “no activity”. As for `CS[C@H](CCCc1c(N)nc(N)[nH]c1=O)c1ccc(C(=O)N[C@@H](CCC(=O)O)C(=O)O)cc1` [Compound 10R-3, (S)-2-(4-((R)-4-(2,4-Diamino-6-oxo-1,6-dihydropyrimidin-5-yl)-1-(methylthio)butyl)benzamido)pentanedioic Acid], the IC50 in assay [1] (setting [3]) came out at 0.09 µM. For the same compound, the “Times less potent than 2 in the CCRF-CEM assay” value in assay [1] is recorded as 3-5 times. Take `CS[C@@H](CCCc1c(N)nc(N)[nH]c1=O)c1ccc(C(=O)N[C@@H](CCC(=O)O)C(=O)O)cc1` [Compound 10S-3, 10-methylthio-DDACTHF]: the “Times less potent than 2 in the CCRF-CEM assay” value in assay [1] is 3-5 times.

The term Ki denotes a dissociation constant, usually derived from enzyme kinetics or from competition with a known ligand. `Nc1nc(N)c(CCC[C@H](O)c2ccc(C(=O)N[C@@H](CCC(=O)O)C(=O)O)cc2)c(=O)[nH]1` [Compound 10S-7, (S)-2-(4-((S)-4-(2,4-Diamino-6-oxo-1,6-dihydropyrimidin-5-yl)-1-hydroxybutyl)benzamido)pentanedioic Acid] came in with a Ki on rhGAR Tfase of 1.21 µM. With `CO[C@@H](CCCc1c(N)nc(N)[nH]c1=O)c1ccc(C(=O)N[C@@H](CCC(=O)O)C(=O)O)cc1` [Compound 10S-8, (S)-2-(4-((S)-4-(2,4-Diamino-6-oxo-1,6-dihydropyrimidin-5-yl)-1-methoxybutyl)benzamido)pentanedioic Acid], in assay [1] (setting [3]), the IC50 came to 0.8 µM.
